Measurements as given in paper PMC2132602 (The Journal of Cell Biology, 1998).

Molecular target: T1, RPK (Ripped Pocket) (Drosophila melanogaster, UniProt Q7KTQ9)
T1 sequence (Q7KTQ9 1-562): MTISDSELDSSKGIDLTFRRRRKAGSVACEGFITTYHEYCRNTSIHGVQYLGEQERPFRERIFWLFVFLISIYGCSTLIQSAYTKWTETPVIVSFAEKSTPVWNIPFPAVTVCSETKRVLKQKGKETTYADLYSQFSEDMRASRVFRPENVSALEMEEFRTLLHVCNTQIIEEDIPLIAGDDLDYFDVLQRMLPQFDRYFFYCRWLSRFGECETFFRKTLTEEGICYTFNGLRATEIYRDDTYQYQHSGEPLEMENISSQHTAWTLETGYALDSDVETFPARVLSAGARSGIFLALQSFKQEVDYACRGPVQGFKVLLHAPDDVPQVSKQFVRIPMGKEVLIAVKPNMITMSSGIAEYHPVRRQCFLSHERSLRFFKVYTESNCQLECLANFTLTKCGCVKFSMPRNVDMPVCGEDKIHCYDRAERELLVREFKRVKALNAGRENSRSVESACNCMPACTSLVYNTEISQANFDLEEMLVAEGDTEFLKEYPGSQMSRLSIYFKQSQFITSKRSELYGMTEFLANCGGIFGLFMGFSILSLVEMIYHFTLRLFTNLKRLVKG
Test: two-electrode voltage clamp, Xenopus oocytes, dose-response of Na+ current block
Type: cell-based

IC50: 9 ± 0.1 µM
Structure (SMILES): N=C(N)NC(=O)c1nc(Cl)c(N)nc1N [amiloride]
